PubChem BioAssay (NCI)
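How tested: cells in 96-well plates exposed to compound for 48 hours at five concentrations. Abbreviation: GI50, concentration required for 50% inhibition of growth. TGI marks complete inhibition of growth.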

Columns and labels:
Assay in all cases: NCI tumour cell line growth inhibition, 48 h
LOX IMVI melanoma = system: LOX IMVI melanoma
OVCAR-3 ovarian = system: OVCAR-3 ovarian
RXF 393 renal = system: RXF 393 renal
SW-620 colon = system: SW-620 colon
COLO 205 colon = system: COLO 205 colon
NCI-H460 lung = system: NCI-H460 lung
SNB-19 CNS = system: SNB-19 CNS
MDA-MB-231 breast = system: MDA-MB-231 breast
MCF7 breast = system: MCF7 breast
HS 578T breast = system: HS 578T breast

Structure (SMILES)	TGI (LOX IMVI melanoma) [µM]	TGI (OVCAR-3 ovarian) [µM]	TGI (RXF 393 renal) [µM]	TGI (SW-620 colon) [µM]	TGI (COLO 205 colon) [µM]	TGI (NCI-H460 lung) [µM]	TGI (SNB-19 CNS) [µM]	GI50 (LOX IMVI melanoma) [µM]	GI50 (OVCAR-3 ovarian) [µM]	GI50 (RXF 393 renal) [µM]	GI50 (SW-620 colon) [µM]	GI50 (MDA-MB-231 breast) [µM]	TGI (MDA-MB-231 breast) [µM]	GI50 (MCF7 breast) [µM]	TGI (MCF7 breast) [µM]	GI50 (COLO 205 colon) [µM]	GI50 (NCI-H460 lung) [µM]	GI50 (SNB-19 CNS) [µM]	GI50 (HS 578T breast) [µM]	TGI (HS 578T breast) [µM]
O=C1C2c3[nH]c4ccccc4c3C3CCCCCC3C2C(=O)N1c1ccccc1 (stereo not given)	> 49.9	35.7	37.7	> 100	> 100	> 77.4	> 74.1	–	–	–	–	–	–	–	–	–	–	–	–	–
O=C(N/C(=C\c1ccccc1Cl)c1nc2ccccc2[nH]1)c1ccccc1	–	> 100	91.5	> 100	> 100	–	> 100	–	–	–	–	–	–	–	–	–	–	–	–	–
Cc1ccc(-c2nc3cc(Cl)c(Cl)cc3nc2C#N)cc1	> 100	> 100	> 100	> 100	> 100	> 100	> 100	> 100	> 100	> 100	> 100	> 100	> 100	> 100	> 100	> 100	> 100	> 100	–	–
CN(NC1OC(CO)C(O)C(O)C1O)c1ccccc1 (stereo not given)	> 100	> 100	> 100	> 100	> 100	> 100	> 100	–	–	–	–	–	–	–	–	–	–	–	–	–
COc1ccc(S(=O)(=O)N[C@H](C(=O)O)c2ccccc2)cc1	> 100	> 100	> 100	> 100	> 100	> 100	> 100	–	–	–	–	–	–	–	–	–	–	–	–	–
COC1OC(CBr)C(OC(=O)c2ccccc2)C(OS(=O)(=O)c2ccc(C)cc2)C1Br (stereo not given)	> 100	> 100	> 100	> 100	> 100	> 100	> 100	–	–	–	–	–	–	–	–	–	–	–	–	–
Cc1cc(=O)n(-c2c(C)cccc2Cl)c(/C=C(\O)c2ccncc2)n1	> 100	> 100	> 100	> 100	> 100	> 100	> 100	–	–	–	–	–	–	–	–	–	–	–	–	–
c1ccc(-c2n(Cc3ccc4ccccc4c3)cc[n+]2Cc2ccc3ccccc3c2)cc1	–	–	2.44	2.48	–	–	–	–	–	1.12	1.08	1.07	2.35	–	–	–	–	–	1.61	4.08
COc1cc2c(cc1O)CN1CCC23C=C[C@@H](O)CC13 (stereo not given in full)	> 100	> 100	> 100	> 100	78.1	> 100	> 100	–	–	–	–	–	–	–	–	–	–	–	–	–
COc1ccccc1/C=C/C1=C(C)CCC(c2ccccc2OC)C1C (stereo not given)	> 56.8	–	–	> 100	0.498	1.27	> 100	0.184	–	0.11	0.138	0.157	6.41	0.0633	1.28	0.21	0.278	0.226	0.112	0.708
O=CNc1ccc(S(=O)(=O)c2ccc(NC=O)cc2)cc1	> 100	> 100	–	> 100	> 100	> 100	> 100	–	–	–	–	–	> 100	–	> 100	–	–	–	–	> 100
Cc1cc(C)c2c(c1)N[S@@](=O)S2	30.7	39	26.3	16.5	33.5	46.5	> 100	–	–	–	–	–	–	–	–	–	–	–	–	–
C=C1C(=O)O[C@H]2[C@H]1CC/C(Cn1cc(-c3cccc(Cl)c3)nn1)=C\CC[C@@]1(C)O[C@@H]21	0.898	1.63	1.85	1.2	1.69	4.52	6.45	0.285	0.475	0.558	0.33	1.09	2.91	–	–	0.417	2.13	2.4	2.26	5.56
COc1ccc2nc(-c3ccccc3)cc(Nc3cccc(C(C)=O)c3)c2c1	–	–	–	15.1	41.1	40.7	> 100	–	–	–	2.7	9.65	28.3	7.95	33.2	6.58	6.38	17.2	10.5	35.6
CCOC(=O)C(NO)C(Sc1ccccc1)c1ccc(OC)cc1 (stereo not given)	> 100	> 100	52.3	> 100	> 100	> 100	> 100	–	–	–	–	–	–	–	–	–	–	–	–	–
